Measured values as given in paper PMC11672299, “Conjugation of Polycationic Peptides Extends the Efficacy Spectrum of β‐Lactam Antibiotics” (Advanced Science, 2024).
Where two headings read alike, the source gives them in different places.

How the values were obtained:
[1] = system: K. pneumoniae Tü20‐036 (clinical isolate); assay: microbe, parasite or virus in culture; type: cell-based
Method in brief: (§1)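 Twofold serial dilutions in cation-adjusted MHB II were inoculated at 5 × 10^5 CFU mL^−1 and incubated 20 h at 37 ± 1 °C. The MIC was the lowest concentration preventing visible growth. Combinations used fixed clavulanic acid (2 mg L^−1) or avibactam (4 mg L^−1).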

[2] = system: E. coli Tü20‐025 (clinical isolate); assay: microbe, parasite or virus in culture; type: cell-based
Method in brief: as §1

[3] = system: S. aureus ATCC 25923 (MSSA); assay: microbe, parasite or virus in culture; type: cell-based
Method in brief: as §1

[4] = system: S. aureus LAC* lux USA300 (MRSA); assay: MIC by broth microdilution; type: cell-based; details: Staphylococcus aureus
Procedure: (§2) The minimum inhibitory concentration (MIC) of the β‐lactam–peptide conjugates was determined by broth microdilution as previously described.^[ [17] ^] Briefly, in cation‐adjusted MHB II medium, a twofold serial dilution of the compounds was prepared in 96‐well round‐bottom polystyrene or polypropylene microtiter plates with each well containing 50 µL. The plates were inoculated with 50 µL bacterial suspension and the final inoculum, in a total volume of 100 µL, contained 5 × 10^5 CFU mL^−1. The microplates were incubated for 20 h at 37 ± 1 °C. The lowest concentration preventing visible bacterial growth was considered the MIC value. For susceptibility testing of combinations of β‐lactamase‐inhibitors with either a β‐lactam antibiotic or a β‐lactam–peptide conjugate, fixed concentrations of the inhibitors according to the EUCAST (European Committee on Antimicrobial Susceptibility Testing) guidelines (clavulanic acid = 2 mg L^−1, avibactam = 4 mg L^−1) were used.

HEK‐293 cells = assay: Cytotoxicity assay (PrestoBlue viability); type: cell-based, human; details: HEK‐293, up to 512 µg mL^−1, 24 h
Procedure: (§3) To exclude any cytotoxic effects on mammalian cells prior to in vivo studies, the viability of the cell lines HEP‐G2 (hepatocellular carcinoma) and HEK‐293 (human […] embryonal kidney) after incubation with different concentrations of the β‐lactam–peptide conjugates were determined. For the viability assay, 10^4 cells per well were seeded in a 96‐well half area microplate and incubated overnight in a humidified 5% CO2 atmosphere at 37 °C. The next day, the conjugates were twofold serially diluted in PBS and added to the cells to obtain final concentrations ranging from 1–512 µg mL^−1. Cells were then incubated with the antibiotics in a humidified 5% CO2 atmosphere at 37 °C for a further 24 h. PrestoBlue HS Cell Viability Reagent was then added to the wells and the plates again were incubated in a humidified 5% CO2 atmosphere at 37 °C for 1 h. Afterwards, the absorption at 570 nm and 600 nm (reference) using an Infinite M200 PRO microplate reader (Tecan, Männedorf, Switzerland) was measured. Cell viability was calculated using the untreated control cells as a reference for 100% alive cells.

HEPG2 cells = assay: Cytotoxicity assay (PrestoBlue viability); type: cell-based, human; details: HEPG2, up to 512 µg mL^−1, 24 h
Procedure: as §3

[5] = system: CTZ‐resistant C. freundii (n = 3); type: cell-based; details: 20 h
Procedure: as §2

[6] = system: CTZ‐resistant A. baumannii (n = 4); type: cell-based
Procedure: as §2

A. bohemicus DSM 100419 = assay: MIC by broth microdilution; type: cell-based; details: median (n = 3)
Procedure: as §2

PBP2A = target: T1, PBP2A (Bacillus subtilis, UniProt P54488); assay: Gel‐based PBP affinity assay (Bocillin FL competition); type: binding; details: B. subtilis membrane fractions, competition with Bocillin FL penicillin; compared with parent β‐lactam
T1 construct: endogenous in cells; host or cells: B. subtilis DSM 10, extracted membrane protein fraction
T1 sequence (P54488 whole entry): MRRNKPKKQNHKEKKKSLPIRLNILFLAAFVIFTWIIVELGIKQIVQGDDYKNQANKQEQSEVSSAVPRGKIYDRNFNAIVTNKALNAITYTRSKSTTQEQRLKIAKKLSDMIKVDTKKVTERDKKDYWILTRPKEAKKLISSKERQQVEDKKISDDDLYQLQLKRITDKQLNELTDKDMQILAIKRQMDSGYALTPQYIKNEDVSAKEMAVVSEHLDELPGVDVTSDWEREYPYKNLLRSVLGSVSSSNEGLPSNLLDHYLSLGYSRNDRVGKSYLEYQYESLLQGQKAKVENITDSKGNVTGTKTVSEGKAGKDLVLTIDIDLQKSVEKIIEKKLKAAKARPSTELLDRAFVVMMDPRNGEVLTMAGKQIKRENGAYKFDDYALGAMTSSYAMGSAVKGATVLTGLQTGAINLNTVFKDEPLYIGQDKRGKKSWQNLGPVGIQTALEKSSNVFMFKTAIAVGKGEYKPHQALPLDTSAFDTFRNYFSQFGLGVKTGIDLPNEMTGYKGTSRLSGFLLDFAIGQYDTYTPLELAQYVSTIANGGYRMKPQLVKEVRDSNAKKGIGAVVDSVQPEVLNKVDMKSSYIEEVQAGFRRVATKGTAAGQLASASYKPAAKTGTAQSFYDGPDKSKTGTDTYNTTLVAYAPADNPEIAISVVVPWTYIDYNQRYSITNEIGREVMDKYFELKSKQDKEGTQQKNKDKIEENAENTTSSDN

PBP5 = assay: as above; type: binding; details: PBPs from vancomycin‐resistant E. faecalis; compared with parent; at concentrations considerably higher than MICs

CC(C)(O/N=C(\C(=O)N[C@@H]1C(=O)N2C(C(=O)[O-])=C(C[n+]3ccccc3)CS[C@H]12)c1csc(N)n1)C(=O)O [CTZ, ceftazidime, reference compound]
MIC ([1]; Klebsiella pneumoniae): 0.125 µg/mL
MIC ([2]; Escherichia coli, E. coli Tü20‐025, median (n = 3), read-out: MIC): 2 µg/mL
MIC ([3]; Staphylococcus aureus, S. aureus ATCC 25923 (MSSA), median (n = 3), read-out: MIC): 16 µg/mL
MIC [4]: 16 µg/mL
cytotoxicity (cell viability) (HEK‐293 cells): no significant cytotoxicity
cytotoxicity (cell viability) (HEPG2 cells): no significant cytotoxicity

CC(C)(O/N=C(\C(=O)N[C@@H]1C(=O)N2C(C(=O)[O-])=C(C[n+]3ccccc3)CS[C@H]12)c1csc(N)n1)C(=O)NCCCCCCN1C(=O)CC(SC[C@H](NC(=O)[C@H](CCCNC(=N)N)NC(=O)[C@H](CCCNC(=N)N)NC(=O)[C@H](CCCNC(=N)N)NC(=O)[C@H](CCCNC(=N)N)NC(=O)[C@H](CCCNC(=N)N)NC(=O)[C@@H](N)CCCNC(=N)N)C(N)=O)C1=O (stereo partly drawn) [CTZ-R6]
MIC range [5]: 0.5 to 64 µg/mL
MIC range ([6]; CTZ‐resistant (n = 4, 20 h)): 4 to 16 µg/mL
increase in antimicrobial activity versus CTZ ([6]; CTZ‐resistant A. baumannii): ~16 fold
MIC ([1]; Tü20‐036 (clinical isolate, 20 h)): 0.0625 µg/mL
MIC ([2]; Tü20‐025 (clinical isolate, 20 h)): 0.5 µg/mL
MIC ([3]; ATCC 25923, 20 h): 4 µg/mL
antimicrobial activity (rank among CTZ–peptide conjugates) (A. bohemicus DSM 100419): most potent conjugates
affinity to PBP2A (PBP2A): significantly increased
binding to PBP5 (PBP5): slightly improved binding
